Experimental data as given in US8076457B2, “Crystal of a cytochrome-ligand complex and methods of use” (The Scripps Research Institute, priority 2005, dated 2011).

What was measured:
CYP2A6dH [1] = target: T1, CYP2A6dH (Homo sapiens, UniProt P11509, Q458E); assay: binding constants by visible difference spectroscopy (low spin to high spin conversion); details: for spectral change on binding to the purified enzyme: spectral titration, UV-visible
T1 construct: expressing residues 29-494 of the catalytic domain without internal modifications; 4xHis (C); made in house; host or cells: Escherichia coli
T1 sequence (P11509 with tags, fused parts or gaps Q458E): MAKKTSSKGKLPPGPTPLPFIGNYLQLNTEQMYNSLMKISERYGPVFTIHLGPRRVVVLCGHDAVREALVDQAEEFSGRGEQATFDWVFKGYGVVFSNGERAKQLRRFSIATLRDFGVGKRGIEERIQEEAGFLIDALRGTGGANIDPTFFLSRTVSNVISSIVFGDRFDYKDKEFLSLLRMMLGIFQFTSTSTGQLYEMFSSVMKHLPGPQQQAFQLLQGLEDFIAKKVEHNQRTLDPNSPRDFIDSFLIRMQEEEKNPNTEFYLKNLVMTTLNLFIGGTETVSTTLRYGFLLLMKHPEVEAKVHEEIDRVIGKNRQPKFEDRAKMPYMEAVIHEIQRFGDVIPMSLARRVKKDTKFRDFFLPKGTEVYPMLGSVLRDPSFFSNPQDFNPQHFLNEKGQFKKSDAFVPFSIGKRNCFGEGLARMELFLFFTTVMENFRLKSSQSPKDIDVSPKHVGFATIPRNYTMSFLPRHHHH
Method: Purified CYP2A6dH was diluted to ˜3 μM in 50 mM KPi pH 7.4, 500 mM NaCl, 20% glycerol, 1 mM EDTA (referred to as XB) in a 1-cm path length microcuvette. […] The total concentration of methanol remained under 1%. Binding was monitored as the absorbance difference, ΔA, between the peak (˜385 nm) and trough (˜417 nm) of the difference spectrum. The apparent binding constant, Ks, and the extrapolated maximum spectral change, ΔAmax, were estimated from nonlinear least-squares regression fitting using the following equation:
[formula] where S is the total concentration of ligand and P is the total concentration of P450.

[2] = target: T2, full length wild-type CYP2A6 (Homo sapiens, UniProt P11509); details: microsomal preparations from a panel of 12 human liver microsomes, cited from earlier work
T2 construct: for full length wild-type CYP2A6 in microsomal preparations; host or cells: human liver microsomes (panel of 12)
T2 sequence (P11509 1-494): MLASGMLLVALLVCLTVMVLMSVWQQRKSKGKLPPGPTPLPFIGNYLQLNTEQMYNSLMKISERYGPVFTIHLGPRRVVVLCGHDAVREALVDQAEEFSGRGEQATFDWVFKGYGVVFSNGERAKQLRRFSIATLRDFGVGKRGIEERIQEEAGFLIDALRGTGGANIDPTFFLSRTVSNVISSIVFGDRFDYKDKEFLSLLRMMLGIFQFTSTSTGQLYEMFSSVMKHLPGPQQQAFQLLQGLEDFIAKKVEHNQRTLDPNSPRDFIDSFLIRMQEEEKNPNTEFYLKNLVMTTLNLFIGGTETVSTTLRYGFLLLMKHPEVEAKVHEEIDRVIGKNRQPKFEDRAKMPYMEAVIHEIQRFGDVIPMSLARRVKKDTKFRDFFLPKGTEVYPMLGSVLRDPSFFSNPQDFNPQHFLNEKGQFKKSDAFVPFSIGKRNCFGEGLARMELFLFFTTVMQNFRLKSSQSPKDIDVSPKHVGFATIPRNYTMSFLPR

CYP2A6dH [3] = target: T1, CYP2A6dH; assay: coumarin 7-hydroxylation by purified CYP2A6dH reconstituted with P450 reductase; type: biochemical
Excerpt: In this example, to determine catalytic properties for the purified protein, CYP2A6dH was reconstituted with E. coli-expressed purified human reductase in the absence of L-α-dilauroyl-L-α-lecithin with slight modifications to the protocol described by Tan et al. (Competitive interactions between CYP2A6 and cytochrome P450 2E1 for NADPH-cytochrome P450 oxidoreductase in the microsomal membranes produced by a baculovirus expression system. Arch. Biochem. Biophys. 342, 82-91 (1997)). 10 pmol CYP2A6dH was incubated on ice for 10 min. with 0.06 U human reductase at a ratio of 1:6, CYP2A6dH to reductase in a final volume of 10 μl. 1.2 benzopyrone at concentrations ranging from 25 μM to 2.5 mM were then added in […] aliquots, along with 430 μL of 50 mM Tris pH 7.4. The reaction mixture was allowed to equilibrate at 37° C. for 3 min. To start the reaction, 50 μl of an NADPH regeneration system (50 mM isocitrate, 50 mM MgCl2, 5 U/ml isocitrate dehydrogenase and 10 mM NADPH) was added. The reaction was allowed to proceed for 5 min., and stopped by addition of 100 μl of cold 20% trichloroacetic acid. The components were centrifuged at 13,000 rpm. 10 μl of the supernatant was removed and added to 190 μl 100 mM Tris buffer, pH 9.0. the coumarin content was quantified fluorometrically (excitation at 368 nm and emission at 453 nm).

## COc1c2occc2cc2ccc(=O)oc12 [methoxsalen, 8-methoxypsoralen]
CYP2A6dH [1]
  spectral change on binding to the purified enzyme: type I spectral change

## O=c1ccc2ccccc2o1 [coumarin, 1,2-benzopyrone]
[2]
  Vmax of coumarin hydroxylation (mean value): 6.34 nmols/min/nmol P450
[2]; read-out: Km of coumarin hydroxylation (mean value)
  Km: 400 nM
CYP2A6dH [1]
  spectral change on binding to the purified enzyme: type I spectral change
CYP2A6dH [1]; substrate dependent conversion to high spin ferric heme protein, read-out: Dissociation constant for binding to purified CYP2A6dH
  Kd: 270 nM
CYP2A6dH [3]
  Km: 230 ± 30 nM
  Vmax for coumarin 7-hydroxylation: 10.83±1.38 nmols/min/nmol P450
